Results from patent US20170066801A1, “ALPHA3BETA HYDROGEN BOND SURROGATE MACROCYCLES AS MODULATORS OF RAS” (NEW YORK UNIVERSITY, priority 2014, published 2017).
“Also recorded” adds a separate entry of the source. Read-outs that look alike come from different tables or passages of the source. Non-standard residues stand in square brackets, D forms with d. Residues, ends and D or L forms follow the SMILES beside them. β3hI = CC[C@H](C)[C@H](N)CC(=O)O; β3hE = N[C@@H](CCC(=O)O)CC(=O)O; β3hA = C[C@H](N)CC(=O)O

Experiments:
[1] = tested on: mutant Ras and wild type Ras cancer cell lines; assay: Analysis of DNA content by FACS (cell cycle); type: cell-based
Description: DNA content was determined by flow cytometric analysis using TO-PRO®-3 Iodide (Life Technologies Corp., Grand Island, N.Y.) to stain nucleic acids. Cell lines were plated at ˜40-50% confluency in multi-well format and 12-hours post plating were treated with either HBS helices or vehicle control at the indicated dose. After the indicated incubation period the culture media was collected, and the cells were trypsinized, pooled with the media, pelleted in a clinical centrifuge, resuspended in a small volume of PBS, and added dropwise to 100% ice-cold ethanol while vortexing at low speed, resulting in a final concentration of ˜70% ethanol. Cells were fixed in this solution on ice for 24 hours. Subsequently cells were pelleted at 4° C., washed once with a solution of 1% BSA in PBS, and resuspended in a solution of 1% BSA, 0.5% Triton X-100, 1:5000 TO-PRO®-3 Iodide (Life Technologies Corp., Grand Island, N.Y.). Results and Discussion of Examples 1-9
We next sought to gain mechanistic insight into the attenuated growth and viability of cancer cells that is observed upon inhibition of Sos-mediated Ras activation with α3β-HBSSOS. Because of the link between Ras signaling and cell cycle progression, we reasoned that DNA content analysis would elucidate Ras-mediated effects on cell growth. […]

[2] = tested on: panel of six human cancer cell lines; assay: Growth and viability of a panel of six human cancer cell lines; type: cell-based; conditions: for effect on cell growth relative to vehicle control: single administration of 5 μM, six days
Description: (§1) Various indicated cell lines were plated at low density (˜500-1000 cells per well) in a 96-well format. 12 hours post-plating, media was supplemented with either PBS vehicle, or indicated dosage, and cells were allowed to grow for ˜5.5 days. Cells were subsequently fixed for 1 hour with a 3.7% formaldehyde solution in PBS, and stained with Syto-60 nucleic acid stain (MANUFACTURER) in solution (1:2000 Syto-60, 0.5% Triton X-100, 100 ug/mL RNAse-A, in PBS). Syto-60 stained cells were subjected to quantitative imaging in 96-well plates (Odyssey® Imager, LI-COR Biosciences; excitation: 652; emission: 678) with a 3.0 mm z-axis offset to the scan-head to get the cellular nuclei in the optimal focal plane for quantification. Absolute fluorescence intensity was normalized to the vehicle control for each respective cell line at each dose. Normalized values were visualized on a semilog plot, and data was subjected to non-linear sigmoidal dose-response to determine half-maximal effective concentration (EC50) using GraphPad Prism version 6.00 for OSX, (GraphPad Software, La Jolla Calif. USA, www.graphpad.com).
(§2) To investigate the functional consequence of inhibiting Ras activation in the context of oncogenic mutations, we examined the effect of α3β-HBSSOS on the growth and viability of cancer cells of different origins. We selected a panel of six human cancer cell lines derived from the pancreas, colon, and bladder, which harbor a variety of oncogenic proteins including mutant KRas (Table 3).
(§3) α3β-HBSSOS reduces cell viability in a dose dependent manner, with the effect spanning over four orders of magnitude. We divided the cell lines into two groups with respect to EC50 values (Table 3). […] We hypothesized that differential cellular uptake may account for the different potency of the peptides between the oncogenic and wild type RTK-Ras cell lines.

[3] = tested on: mutant Ras cells; assay: Phosphorylated H2AX and cleaved caspace-3 immunofluorescence; type: cell-based; conditions: only mutant Ras cells
From the text: We next sought to gain mechanistic insight into the attenuated growth and viability of cancer cells that is observed upon inhibition of Sos-mediated Ras activation with α3β-HBSSOS. Because of the link between Ras signaling and cell cycle progression, we reasoned that DNA content analysis would elucidate Ras-mediated effects on cell growth. […] This cellular response to pharmacological inhibition of Ras activation by α3β-HBSSOS phenocopies the effects of the post-transcriptional silencing of wild type Ras and Sos in oncogenic Ras-driven cancer. These corroborant genetic and pharmacological cell viability defects support the therapeutic strategy of targeting wild type Ras activation.

[4] = tested on: SW780; type: cell-based, human; conditions: SW780, Ras WT; read-out: EC50 for cell viability
Description: as §1, §2, §3

[5] = tested on: CaCo2; type: cell-based, human; conditions: CaCo2, Ras WT; read-out: EC50 for cell viability
Description: as §1, §2, §3

[6] = tested on: BxPc3; type: cell-based, human; conditions: BxPc3, Ras WT; read-out: EC50 for cell viability
Description: as §1, §2, §3

[7] = tested on: J82; type: cell-based, human; conditions: read-out: EC50 for cell viability
Description: as §1, §2, §3

[8] = tested on: Mia PaCa2; type: cell-based, human; conditions: read-out: EC50 for cell viability
Description: as §1, §2, §3

[9] = tested on: HCT116; type: cell-based, human; conditions: read-out: EC50 for cell viability
Description: as §1, §2, §3

[10] = target: T1, HRas^(1-166) (Homo sapiens, UniProt P01112); assay: In vitro pulldown binding assay with 6×His-tagged HRas 1-166 and fluorescein-tagged SOS peptides
T1 construct: 6×His-tagged HRas WT 1-166; made in house
Description: Recombinantly purified 6×His-tagged HRas WT 1-166 was incubated with Ni-NTA sepharose beads, generating recombinant Ras on solid support. FITC labeled HBS peptides were incubated in the presence of recombinant HRas-6×His/Ni-NTA Sepharose complex at 4° C. for 1 hour. Beads complexes were pelleted and washed 5× with protein buffer (20 mM Tris-HCl pH 7.6, 50 mM NaCl, 4 mM EDTA, 10 mM MgCl2), resuspended in reducing buffer (126 mM Tris-HCL pH 6.8, 20% glycerol, 4% SDS, 0.02% bromophenol blue, 2.5% β-mercaptoethanol), boiled for 10 minutes at 95° C., and subjected to SDS-PAGE with an acrylamide percentage of 20% to allow for sufficient resolution of the HBS helices. SDS-PAGE gels were imaged using an ImageQuant™ LAS 4000 biomolecular imager (GE Healthcare, Piscataway, N.J., USA). Quantification of fluorescence by FITC-HBS helices in gel was determined by manufacturer provided ImageQuant™ TL software. Raw values were normalized to total input and plotted on a semilog graph with GraphPad Prism version 6.00 for OSX (GraphPad Software, La Jolla Calif. USA, www.graphpad.com).
The binding affinity of the designed compounds for Ras was determined using in vitro pulldown assays with recombinantly purified 6×His-tagged HRas^(1-166) and fluorescein-tagged SOS peptides (FIGS. 8 and 9, and Table 2). […] Although, the exact binding mode of the peptides and the conformational state of Ras is not known, the enhanced affinity of the α3β-HBSSOS compound likely reflects a combination of both the higher conformational stability of the HBS α3β construct and the exact Ras conformation it can access. […] Because, the SOS analogs can bind nucleotide-free and bound Ras, we hypothesize that the compounds are accessing an intermediate switch conformation.

[11] = target: Sos-mediated Ras nucleotide exchange (Homo sapiens, UniProt P01112); assay: In vitro nucleotide exchange (mant-GDP, SOS-Cat); type: biochemical
Description: Exchange assays were performed by incubating 1 μM of recombinant wild type Ras protein with 1 μM mant-GDP in exchange buffer (20 mM Tris-HCl pH 7.6, 50 mM NaCl, 4 mM EDTA) for 5 minutes on ice. The mixture was then supplemented with 10 mM MgCl2 and incubated for an additional 6 hours at 4° C. Exchange reaction was initiated by either the addition of 100 μM-unlabeled GDP, (negative control) or the addition of 100 μM-unlabeled GDP in the presence of 1 μM SOS-Cat. The levels of fluorescence anisotropy were measured on a Perkin Elmer fluorescence spectrometer (model LS50B) with an excitation wavelength of 370 nm and emission detection at 430 nm. To test the inhibitory properties of the HBSSOS helices, indicated peptides were added to the mant-loaded Ras at a concentration of 1 uM and allowed to stand for 10 minutes at 4° C. before the addition of SosCat. Dissociation rates (Koff values) were determined by fitting raw data to a first-order exponential decay function using GraphPad Prism version 6.00 for OSX (GraphPad Software, La Jolla Calif. USA, www.graphpad.com). Data was normalized to t=0, converted to a percentage, and plotted as a curve for ease of visualization.
We evaluated inhibition of nucleotide exchange under stringent conditions consisting of 1 μM each of Ras, SOS, and the inhibitor.

[12] = target: T2, oncogenic KRas (Homo sapiens, UniProt P01116, G12C); assay: RBD-pulldown of GTP-loaded Ras in MIA PaCa-2 cells; type: cell-based; conditions: 48 hours
T2 construct: levels of GTP-loaded endogenous HRas, KRas, and NRas proteins; endogenous in cells; host or cells: MIA PaCa-2
Description: (§4) To determine the effect of α3β-HBSSOS on Sos-mediated Ras activation in cells we treated MIA PaCa-2 cells, which harbor oncogenic KRas, with α3β-HBSSOS, control peptides, or vehicle control for 48 hours. Utilizing the RBD-pulldown assay we determined the levels of GTP-loaded endogenous HRas, KRas, and NRas proteins. As expected, MIA PaCa-2 cells display GTP-loading of all isoforms at steady state when treated with the vehicle control (FIGS. 11A-B).

[13] = target: T3, wild type NRas (Homo sapiens, UniProt P01111); assay: RBD-pulldown of GTP-loaded Ras in MIA PaCa-2 cells; type: cell-based; conditions: 48 hours
T3 construct: levels of GTP-loaded endogenous HRas, KRas, and NRas proteins; endogenous in cells; host or cells: MIA PaCa-2
Description: as §4

[14] = target: T4, wild type HRas (Homo sapiens, UniProt P01112); assay: RBD-pulldown of GTP-loaded Ras in MIA PaCa-2 cells; type: cell-based; conditions: 48 hours
T4 construct: levels of GTP-loaded endogenous HRas, KRas, and NRas proteins; endogenous in cells; host or cells: MIA PaCa-2
Description: as §4

T3 sequence (P01111 whole entry): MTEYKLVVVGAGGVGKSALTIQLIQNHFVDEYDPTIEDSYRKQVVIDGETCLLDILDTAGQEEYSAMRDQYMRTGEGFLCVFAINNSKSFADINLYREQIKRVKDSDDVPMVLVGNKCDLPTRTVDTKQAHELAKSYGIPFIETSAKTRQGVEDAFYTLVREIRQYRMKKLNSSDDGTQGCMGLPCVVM
T2 sequence (P01116 whole entry G12C): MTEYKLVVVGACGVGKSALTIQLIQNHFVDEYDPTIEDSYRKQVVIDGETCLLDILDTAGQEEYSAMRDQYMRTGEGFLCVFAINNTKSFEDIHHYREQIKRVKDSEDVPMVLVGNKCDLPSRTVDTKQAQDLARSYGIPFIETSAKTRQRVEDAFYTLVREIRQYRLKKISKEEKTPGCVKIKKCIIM

## CC[C@H](C)[C@@H](CC(=O)N[C@@H](Cc1ccc(O)cc1)C(=O)N[C@@H](CCCNC(=N)N)C(=O)N[C@@H](CC(C)C)C(=O)N[C@@H](CCC(=O)O)CC(=O)N[C@@H](CC(C)C)C(=O)N[C@@H](CC(C)C)C(=O)N[C@@H](CCCCN)C(=O)N[C@@H](C)CC(=O)N[C@@H](CCC(=O)O)C(=O)N[C@@H](CCC(=O)O)C(=O)N[C@@H](C)C(=O)N[C@@H](CC(N)=O)C(N)=O)NC(=O)CN1CC=CCCCC(=O)N[C@@H](Cc2ccccc2)C(=O)N[C@@H](CCC(=O)O)C1=O [α3β-HBSSOS, ZFEG*iYRLeLLKaEEAN-NH2]
[1]; mutant Ras cells (MIA PaCa-2, HCT-116, Umuc3, T24), 48 hours
  cells with 4N DNA content: accumulation
[1]; wild type Ras cell lines (SW780, BxPc3, J82)
  accumulation in the G2/M phase of the cell cycle: do not accumulate
[2]; CaCo2, SW780, and BxPc3
  effect on viability of the wild-type Ras group: limited effects on viability
[2]
  effect on cell growth relative to vehicle control: inhibited the growth of all cell lines to varying degrees
[3]
  DNA strand breaks and apoptosis: increased levels
[4]
  EC50: 1450 nM
[5]
  EC50: 2670 nM
[6]
  EC50: 1180 nM
[7]; J82, Ras WT, FGFR3 CA
  EC50: 65.2 nM
[7]; J82
  EC50: 65.2 ± 43 nM
[8]; MIA PaCa-2
  EC50: 144 ± 57 nM
[8]; Mia PaCa2, Kras G12D
  EC50: 144 nM
[9]; HCT116, Kras G13C
  EC50: 243 nM
[9]; HCT-116
  EC50: 243 ± 44 nM
[10]
  fold greater affinity than the all-α analog α-HBSSOS: 50 fold
[10]; fluorescein-tagged peptides, 4° C., 1 hour
  Kd: 220 ± 56 nM
[11]; 1 μM each of Ras, SOS, and the inhibitor
  inhibition of Sos-mediated Ras nucleotide exchange: potent inhibitory effect
[11]; relative to α-HBSSOS concentration
  concentration giving inhibitory effect comparable to previously reported α-HBSSOS: one-twentieth
[12]
  GTP-loading of oncogenic KRas: diminished; also recorded: significantly reduced
[13]
  GTP-loading of wild type NRas: completely abrogated
[14]
  GTP-loading of wild type HRas: completely abrogated

## CC[C@H](C)[C@@H](CC(=O)N[C@@H](Cc1ccc(O)cc1)C(=O)N[C@@H](CCCNC(=N)N)C(=O)N[C@@H](CC(C)C)C(=O)N[C@@H](CCC(=O)O)CC(=O)N[C@@H](CC(C)C)C(=O)N[C@@H](CC(C)C)C(=O)N[C@@H](CCCCN)C(=O)N[C@@H](C)CC(=O)N[C@@H](CCC(=O)O)C(=O)N[C@@H](CCC(=O)O)C(=O)N[C@@H](C)C(=O)N[C@@H](CC(N)=O)C(N)=O)NC(=O)CNC(=O)[C@H](CCC(=O)O)NC(=O)[C@H](Cc1ccccc1)NC(C)=O [α3β-UNCSOS, Ac-FEGiYRLeLLKaEEAN-NH2] (Ac-FEG[β3hI]YRL[β3hE]LLK[β3hA]EEAN-NH2)
[2]
  effect on cell growth relative to vehicle control: no effect on cell growth
[10]
  fold weaker affinity than constrained counterpart α3β-HBSSOS: ~136 fold
[13]
  GTP-loading of wild type NRas: not
[14]
  GTP-loading of wild type HRas: not
